Values of other authors as cited in patent US20220193065A1, “COMPOSITIONS AND METHODS TO TREAT NON-ALCOHOLIC FATTY LIVER DISEASES (NAFLD)” (Coherus Biosciences, Inc., priority 2019, published 2022).

Conditions: monotherapy; background statement

Cc1cc(F)c(C(=O)Nc2cccc(-c3nncn3C(C)C)n2)cc1-n1cnc(C2CC2)c1 [selonsertib]
primary endpoint of the STELLAR-4 phase 3 clinical trial: failed to meet the primary endpoint
